We go through 2 molecules from patent publication US20130236529A1, “COMPOSITION AND METHODS TO ENHANCE ANTI-OXIDATION, GUT FLORA AND IMMUNITY IN PETS” (FLAVITPURE, INC., priority 2012, published 2013).

The subject of one data set is NQO1. The conditions noted are these: microarray, in the presence of taxifolin; cited from earlier work.
The next data set deals with CYP2E1. The conditions noted are these: microarray, in the presence of taxifolin; cited from earlier work.
A further data set concerns GSTM1. The conditions noted are these: microarray, in the presence of taxifolin; cited from earlier work.
The conditions of data set [1]: oxidation of 2′-deoxyguanosine, Fenton reaction catalyzed by copper; cited from earlier work.
Data set [2] deals with human lung embryonic fibroblasts (TIG-1). The conditions noted are these: TIG-1 cells; cited from earlier work.
Data set [3] can be described thus: ORAC hydro antioxidant capacity assay. An excerpt:
The majority of HAT-based assays apply a competitive reaction scheme, in which antioxidant and substrate compete for thermally generated peroxyl radicals through the decomposition of azo compounds. ORAC is an assay for the […] oxygen radical absorbance capacity. The ORAC hydro tests the capacity dihydroquercetin generated hydrogen atom transfer (HAT) to compete for thermally generated peroxyl radicals and hydroxyl radicals. For the latter it is necessary to use the ORAC assay test. Unlike electron transfer based assays that measure an antioxidant's reducing capacity, and the hat-based assays measure the hydrogen atom donating capacity. The hydrogen atom transfer is a key step in the radical chain reaction. Therefore, the hat-based assays are more relevant to the radical chain-breaking antioxidant capacity. Among all the hat-based assays, ORAC adopted an AUC (area under curve) technique to quantify antioxidant capacity. […] This approach unifies the lag time method and initial rate method, and it is particularly useful for food samples, which often contain multiple ingredients and have complex reaction kinetics. Therefore, the ORAC assay has been broadly applied in academics and the food and supplement industry as the method of choice to quantify antioxidant capacity. […]

For data set [4] the following is noted: relative to quercetin; cited from earlier work.
The test system of data set [5] is umbilical vein endothelial (HUVE) cells. The conditions noted are these: cited from earlier work.

Turning to `O=C1c2c(O)cc(O)cc2O[C@H](c2ccc(O)c(O)c2)[C@H]1O` [Dihydroquercetin], the “expression of phase II detoxification enzyme NQO1” value with NQO1 was “upregulated”. In addition, the “expression of phase I detoxification enzyme CYP2E1” value with CYP2E1 is “down regulated”. Further, in the data set with GSTM1, the “expression of phase II detoxification enzyme GSTM1” value was “upregulated”. Also, the pro-oxidant activity result in data set [1] was “did not present pro-oxidant activity”. Further, the figures for the 50% lethal concentration in data set [2] and in data set [5] were greater than 300 µmol and greater than 200 µmol, respectively. The orachydro value in data set [3] (per 420 mg capsule) is ≥ 300 micromole of trolox equivalent per 420 mg capsule; in data set [3] (per gram) it was ≥ 800 micromole trolox equivalent per gram. In data set [4], the “times less mutagenic than quercetin” value is reported as 400 times.

In the case of catechin [reference compound], in data set [1], the pro-oxidant activity result is given as “did not present pro-oxidant activity”.
